Results published in ChEMBL document CHEMBL5576079, “Discovery of a potent orally available pyrazolopyridone derivative as a novel selective bromodomain and extra-terminal domain (BET)-first bromodomain (BD1) inhibitor” (Bioorg Med Chem Lett, 2024).
Calls of active or inactive are those of the source. The calls are words filed in the database; no cut-off is given here.

How the values were obtained:
Mus musculus [1] = assay: Anti-inflammatory activity in endotoxemia mouse model assessed as suppression of LPS-induced serum MCP-1 level at 10 mg/kg, po preincubated for 30 mins followed by LPS stimulation and measured after 90 mins; format: functional, organism-based; settings: time 120.0 min
[2] = Drug concentration in LPS induced mouse plasma at 100 mg/kg measured after 2 hrs; format: ADME, organism-based
Monocyte = assay: Inhibition of LPS-induced MCP-1 production in mouse Monocyte
[3] = Drug concentration in LPS induced mouse plasma at 10 mg/kg measured after 2 hrs; format: ADME, organism-based
Mus musculus [4] = assay: Anti-inflammatory activity in endotoxemia mouse model assessed as suppression of LPS-induced serum IL-6 level at 10 mg/kg, po preincubated for 30 mins followed by LPS stimulation and measured after 90 mins; format: functional, organism-based; settings: time 120.0 min

SMILES | Activity (Mus musculus [1]) | concentration at 2 h [2] | IC50 (Monocyte) | concentration at 2 h [3] | Activity (Mus musculus [4])
Cc1csc(-c2cn(C)c(=O)c3cn(CC4CC(C(=O)NC5CCCCC5)CCN(C)C4)nc23)n1 (stereo unspecified) | Active | 707 ng/mL | 1 nM | 39.1 ng/mL | Active
Cc1sc2c(c1C)C(c1ccc(Cl)cc1)=N[C@@H](CC(=O)OC(C)(C)C)c1nnc(C)n1-2 | – | – | 2 nM | – | –
